Read-outs that look alike come from different tables or passages of the source.
How the values were obtained:
[1] = Haematocrit in horses with billiary treated in apparatus 10; format: in vivo, horse; settings: after two treatment sessions, increased from 31

O=[O+][O-] [ozone]
discomfort during the treatment (five horses, during treatment): none of the horses appeared to be uncomfortable
respiration of the horses during treatment (five horses, during treatment): increased
motion marks in the rest of the ride (horse Moniq, after treatment on day 1 and day 2, motion 1 throughout day 1): no motion marks
muscle spasms found by physiotherapist (horse Moniq, day 2 and day 3 of race, lumbar spasms confirmed on day 1 before treatment): no muscle spasms
creatine kinase (horse Moniq, treated on day 1 and day 2 of race, lowered from 3873): 706
rider's report on second and third days of the race (horse Ophelia, dehydrated and fatigued on day 1, treated after first and second day): felt very strong and consistent
performance on third day of the race (horse Shamon, severe fatigue by day 2, treated in the afternoon of day 2, finished fifteenth): rode very well
CK and AST levels (horses that presented symptoms of tying-up): marked decrease
occurrence of muscle spasms (horses treated transdermally with ozone): significantly reduced
energy levels and stamina (horses with general fatigue from constant hard work and competition): marked improvement
motion marks or stiffness during the race (mare Pauli, pre-treatments before the race, history of gluteal muscle spasms and tying up, finished fourteenth): no motion marks or stiffness
owner's report on second and third days of the race (mare Viola, treated on first and second day): felt much stronger and looser
aspertine amino transferase (mare Viola, treated on first and second day, lowered from more than 2000): 1814 U/L
creatine kinase (mare Viola, tying up on day 1, treated on first and second day, lowered from 5896): 1599 IU/K
average heart-rate during treatment (non-accustomed horses, enclosure 42-45 °C, oxygen flow 1 l/min to ozonator): 42 beats per minute
muscle stiffness caused by long periods of intense exercise (preliminary study on endurance horses): benefit to reduce muscle stiffness
haematocrit [1]: 38%

— patent US20090314217A1, “APPARATUS AND METHOD FOR TREATING NON-HUMAN MAMMALS” (Under The Boardwalk Properties 8 (Proprietary) Limited, priority 2006, published 2009)
